Each compound was assayed against T1, NOX2 in differentiated HL60 cells (Homo sapiens, UniProt P04839) (assay: HL60 cell-based assays: superoxide production by NOX2 (Oxyburst Assay 1 or L012 Assay 2)). Conditions: PMA-stimulated differentiated HL60 cells; in at least one of the HL60 assays (Oxyburst fluorescence or L012 luminescence).
T1 construct: Differentiation of HL-60 cells to granulocytes increases NOX2 expression; endogenous in cells; host or cells: HL60 cells differentiated into neutrophil-like cells with 1.3% DMSO
T1 sequence (P04839 2-570 limits assumed): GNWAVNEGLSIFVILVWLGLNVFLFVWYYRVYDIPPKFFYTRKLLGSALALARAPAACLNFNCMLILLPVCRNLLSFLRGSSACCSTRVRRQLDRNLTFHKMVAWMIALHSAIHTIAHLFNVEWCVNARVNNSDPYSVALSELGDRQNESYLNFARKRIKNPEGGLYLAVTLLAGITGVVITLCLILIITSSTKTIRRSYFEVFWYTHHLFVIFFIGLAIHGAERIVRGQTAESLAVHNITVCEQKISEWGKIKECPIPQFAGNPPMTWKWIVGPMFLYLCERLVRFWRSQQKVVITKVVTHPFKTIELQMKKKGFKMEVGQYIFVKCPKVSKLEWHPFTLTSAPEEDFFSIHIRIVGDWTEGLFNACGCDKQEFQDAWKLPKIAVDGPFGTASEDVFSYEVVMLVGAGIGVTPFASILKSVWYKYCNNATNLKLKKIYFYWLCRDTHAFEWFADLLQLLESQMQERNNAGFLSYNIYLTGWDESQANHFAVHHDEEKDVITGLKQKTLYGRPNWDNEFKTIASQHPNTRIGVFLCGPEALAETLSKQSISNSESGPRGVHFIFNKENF
T1 sequence (P13498 2-195 partner limits assumed): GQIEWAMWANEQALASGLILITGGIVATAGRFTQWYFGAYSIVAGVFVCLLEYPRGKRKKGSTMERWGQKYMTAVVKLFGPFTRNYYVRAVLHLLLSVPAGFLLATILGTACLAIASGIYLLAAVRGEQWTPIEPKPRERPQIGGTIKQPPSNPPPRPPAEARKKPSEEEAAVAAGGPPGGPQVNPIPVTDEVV
Method: In the cell-based assay, superoxide production by NOX2 was measured in differentiated HL60 cells, a human myelomonocytic leukemia cell line, using either Oxyburst (Assay1) or L012 (Assay2). Differentiation of HL-60 cells to granulocytes increases NOX2 expression. The phorbol 12-myristate 13-acetate (PMA) was used to stimulate the production of superoxide in HL60 cells by activating protein kinase C, which then activated the NADPH oxidase (NOX) enzymes. Inhibition of NOX2 enzyme was detected by the reversal of fluorescence signal (Assay 1) or luminescence signal (Assay2). The control inhibitor used was diphenyleneiodonium chloride (DPI), a […] inhibitor capable of non-selectively inhibiting superoxide produced by NOX enzymes.
Assay 1: in this high-throughput screening assay, oxyburst green bovine serum albumin (BSA) was used to detect superoxide production in HL60 cells. Oxidation of Oxyburst green BSA by hydrogen peroxide as a result of the activation of NOX2 by PMA. Oxyburst green BSA fluorescence was measured at excitation 485 nm and emission 530 nm.
Assay 2: in this assay, a chemiluminescence probe, L-012 was used to detect superoxide production in HL60 cells. L-012 reacted with various types of reactive oxygen species generated by PMA-activated HL60 cells. Luminescence was measured using Tecan Infinite 500.
The HL60 cells were differentiated into neutrophil-like cells by adding 1.3% DMSO in the media for 3-7 days (Hua, J et al. (2000) Journal of Leukocyte Biology. 68:216-224). Iscove's Modified Dulbecco's Media (IMDM) with L-Glutamine and 25 mM HEPES buffer, Fetal Bovine Serum (FBS), Penicillin/Streptomycin, Oxyburst Green BSA, PBS, and HBSS buffer with Calcium Chloride and Magnesium Chloride were purchased from Invitrogen (Catalog #s: 12440-061, 10500-064, 15140-163, O-13291, 14190-250, and 14025-134 respectively). Phorbol 12-myristate 13-acetate (PMA), glucose, and CHAPS were purchased from Sigma (Catalog #s: 79346, D-9434, and C5070 respectively). Diphenyleneiodonium chloride (DPI) was purchased from Toronto Research Chemicals (Catalog #: D491500). L-012 was purchased from Wako Chemical (Catalog #: 120-04891). Dimethyl sulfoxide (DMSO) was purchased EMD Chemicals (VWR Catalog #: MX1456-1). Multidrop combi was purchased from Thermo Electron Corporation (Waltham, Mass., USA). Hummingbird nanoliter liquid dispenser was purchased from Genomics Solution (Ann Arbor, Mich., USA). 384 well low-volume plates and polypropylene 384 well clear plates were purchased from Greiner (Catalog #: 784076 and 781280 respectively). 96 well plate and 384 well plate black assay plates were purchased from Greiner (Catalog #: 655094 and 781098). 96 well plate for compound serial dilution was purchased from Corning (Catalog #: 9017). Acquest or Analyst fluorescence plate reader was purchased from LJL Biosystems/Molecular Devices (California, USA). Tecan Infinite 500 was purchased from Tecan (Switzerland).
HL60 cells were thawed and resuspended in Cells media. The cells were centrifuged at 1200 rpm for 5 minutes. Media was aspirated and the cells were resuspended in Cells buffer. The cells were counted and resuspended to 0.5×10^6 cells/mL.
Full inhibition controls were dispensed using 100 nL/well of 1 mM DPI in DMSO to column 18 of a 384 well plate. Compounds were dispensed using 100 nL/well. Full activity controls were dispensed using 100 nL/well of 4 uM PMA in DMSO. Oxyburst Green BSA was added to cell solution at 10 ug/mL. Using the Multidrop, 10 uL cell solution was added to the entire assay plate. The assay plate was incubated at room temperature for 100 minutes. Fluorescence reading was taken after 100 minutes at excitation 485 and emission 530 using 505 Dichroic on the Acquest or Analyst.
Serial dilution (1:3.16 fold serial dilution) of the compounds was performed in 100% DMSO in 96 well plate—Row B-H Column 1-10. Row A, Column 1-10 contained DPI serial dilution. Starting concentration was 10^−2 M (10 mM). […]

IC50, > 100 µM:
CC(C)N1CCN(c2cncc(-c3cn(C)c4nccc(NS(=O)(=O)c5cccc(Cl)c5)c34)c2)CC1 [Example 25, 3-chloro-N-(3-(5-(4-isopropylpiperazin-1-yl)pyridin-3-yl)-1-methyl-1H-pyrrolo[2,3-b]pyridin-4-yl)benzenesulfonamide]
COc1cc(-c2cn(C)c3nccc(NS(=O)(=O)c4ccccc4)c23)cc(N2CCN(C)CC2)c1 [Example 28, N-(3-(3-methoxy-5-(4-methylpiperazin-1-yl)phenyl)-1-methyl-1H-pyrrolo[2,3-b]pyridin-4-yl)benzenesulfonamide]
COc1cc(-c2cn(C)c3nccc(NS(=O)(=O)c4ccccc4)c23)cc(N2CCN(C(C)C)CC2)c1 [Example 29, N-(3-(3-(4-isopropylpiperazin-1-yl)-5-methoxyphenyl)-1-methyl-1H-pyrrolo[2,3-b]pyridin-4-yl)benzenesulfonamide]
CN1C(=O)COc2ccc(-c3cn(C)c4nccc(NS(=O)(=O)c5ccccc5)c34)cc21 [Example 39, N-(1-methyl-3-(4-methyl-3-oxo-3,4-dihydro-2H-benzo[b][1,4]oxazin-6-yl)-1H-pyrrolo[2,3-b]pyridin-4-yl)benzenesulfonamide]
Cn1c(-c2cc[nH]n2)c(-c2cccc(N3CCCC3)c2)c2c(NS(=O)(=O)c3ccccc3)ccnc21 [Example 173, N-(1-methyl-2-(1H-pyrazol-3-yl)-3-(3-(pyrrolidin-1-yl)phenyl)-1H-pyrrolo[2,3-b]pyridin-4-yl)benzenesulfonamide]
CN1Cc2ccc(-c3cn(C)c4nccc(NS(=O)(=O)c5ccccc5)c34)cc2C1 [Example 251, N-[1-methyl-3-(2-methyl-2,3-dihydro-1H-isoindol-5-yl)-1H-pyrrolo[2,3-b]pyridin-4-yl]benzenesulfonamide]
